Assay results reported in ChEMBL document CHEMBL1201862, “PubChem BioAssay data set” (2004).
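Assay format: 96-well plates, 48-hour exposure. GI50: concentration for 50% inhibition of growth.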 Activity calls are given as the source filed them. No stated cut-off is given here; in the data, active = GI50 up to about 1.1 µM and inactive = higher.

Legend:
Test in all cases: NCI-60 cell line screen, 48 h
MDA-MB-435 = test system: MDA-MB-435
SF-268 = test system: SF-268
OVCAR-3 = test system: OVCAR-3
EKVX = test system: EKVX
NCI/ADR-RES = test system: NCI/ADR-RES
SF-539 = test system: SF-539
SN12C = test system: SN12C
OVCAR-4 = test system: OVCAR-4
CCRF-CEM = test system: CCRF-CEM
SK-OV-3 = test system: SK-OV-3
SNB-19 = test system: SNB-19
CAKI-1 = test system: CAKI-1
SK-MEL-5 = test system: SK-MEL-5
A549 = test system: A549
COLO 205 = test system: COLO 205
T47D = test system: T47D
UACC-257 = test system: UACC-257
HCT-15 = test system: HCT-15
UACC-62 = test system: UACC-62

Measured: GI50

O=C(c1ccccc1)c1ccc2[nH]c(-c3c(Cl)c(Cl)c(Cl)c(Cl)c3C(=O)N/N=C\C=C\c3ccccc3)nc2c1
32.5 µM: HCT-15
inactive: MDA-MB-435 30.1 µM | SF-268 38.6 µM | OVCAR-3 25.1 µM | EKVX 40.7 µM | NCI/ADR-RES > 100 µM | SF-539 61 µM | SN12C 31.3 µM | OVCAR-4 26.1 µM | CCRF-CEM 12 µM | SK-OV-3 > 100 µM | SNB-19 66.2 µM | CAKI-1 77.4 µM | SK-MEL-5 26.9 µM | A549 50.1 µM | COLO 205 30.5 µM | T47D 16.5 µM | UACC-257 83.9 µM

Cn1c(=O)c2c(nc3[nH]c(=O)c(Br)cn32)n(C)c1=O
inactive: MDA-MB-435 > 100 µM | SF-268 > 100 µM | OVCAR-3 > 100 µM | EKVX 93.8 µM | NCI/ADR-RES > 100 µM | SF-539 > 100 µM | SN12C > 100 µM | OVCAR-4 > 100 µM | CCRF-CEM > 100 µM | SK-OV-3 > 100 µM | SNB-19 > 100 µM | CAKI-1 > 100 µM | SK-MEL-5 > 100 µM | A549 > 100 µM | COLO 205 > 100 µM | T47D > 100 µM | UACC-62 > 100 µM | UACC-257 > 100 µM
> 100 µM: HCT-15

COc1cc([C@@H]2c3[nH]c4ccccc4c3C(Nc3ccc([N+](=O)[O-])cc3)[C@H]3COC(=O)N23)cc(OC)c1O (stereo partly specified)
1.96 µM: HCT-15
active: MDA-MB-435 0.505 µM | SF-268 0.299 µM | OVCAR-3 0.382 µM | SF-539 0.124 µM | SN12C 0.187 µM | CCRF-CEM 0.0395 µM | SK-OV-3 0.269 µM | SNB-19 0.127 µM | CAKI-1 0.247 µM | SK-MEL-5 0.0914 µM | A549 0.0531 µM | COLO 205 0.548 µM | T47D 0.466 µM | UACC-62 0.195 µM | UACC-257 0.857 µM
inactive: EKVX 1.78 µM | NCI/ADR-RES > 86.3 µM | OVCAR-4 1.74 µM

CC(C)Oc1cccc(N2C(Nc3ccccc3)=Nc3ccncc3S2(=O)=O)c1
inactive: MDA-MB-435 11.8 µM | SF-268 38.9 µM | OVCAR-3 18.4 µM | EKVX 40.5 µM | NCI/ADR-RES 19.3 µM | SF-539 23.8 µM | SN12C 30.8 µM | OVCAR-4 15.6 µM | CCRF-CEM 7.55 µM | SK-OV-3 44 µM | SNB-19 34.8 µM | CAKI-1 26 µM | SK-MEL-5 4.12 µM | A549 20.4 µM | COLO 205 13.1 µM | T47D 13.8 µM | UACC-62 19.9 µM | UACC-257 17.4 µM
20.2 µM: HCT-15

O=[N+]([O-])c1c(F)c(F)c2c(c1F)N(CCCCCl)c1ccccc1S2
1.6 µM: HCT-15
inactive: MDA-MB-435 7.71 µM | SF-268 6.04 µM | OVCAR-3 7.01 µM | EKVX 21.7 µM | NCI/ADR-RES 17.5 µM | SF-539 17.2 µM | SN12C 7.5 µM | OVCAR-4 8.57 µM | CCRF-CEM 2.38 µM | SK-OV-3 19.7 µM | SNB-19 7.69 µM | CAKI-1 6.98 µM | SK-MEL-5 12.2 µM | A549 14.4 µM | COLO 205 14.4 µM | T47D 12.4 µM | UACC-62 13.9 µM | UACC-257 11.4 µM

CC1(C)OCC(C2OC3OC(C)(C)OC3C2N)O1 (stereo unspecified)
> 100 µM: HCT-15
inactive: MDA-MB-435 > 100 µM | SF-268 > 100 µM | OVCAR-3 > 100 µM | EKVX > 100 µM | NCI/ADR-RES > 100 µM | SF-539 > 100 µM | SN12C > 100 µM | OVCAR-4 > 100 µM | CCRF-CEM > 100 µM | SK-OV-3 > 100 µM | SNB-19 > 100 µM | CAKI-1 > 100 µM | SK-MEL-5 > 100 µM | A549 > 100 µM | COLO 205 > 100 µM | T47D > 100 µM | UACC-62 > 100 µM | UACC-257 > 100 µM

O=C(O)C(F)(OC(F)(F)C(F)(OC(F)(F)C(F)(F)C(F)(F)F)C(F)(F)F)C(F)(F)F (stereo unspecified)
inactive: MDA-MB-435 > 100 µM | SF-268 > 100 µM | OVCAR-3 > 100 µM | EKVX > 100 µM | NCI/ADR-RES > 100 µM | SF-539 > 100 µM | SN12C 78.5 µM | OVCAR-4 > 100 µM | CCRF-CEM > 100 µM | SK-OV-3 > 100 µM | SNB-19 > 100 µM | CAKI-1 > 100 µM | SK-MEL-5 > 100 µM | A549 > 100 µM | COLO 205 > 100 µM | T47D > 100 µM | UACC-62 > 100 µM | UACC-257 > 100 µM
> 100 µM: HCT-15

COc1cc(OC)c2c(=O)c(OC)c(-c3ccc4c(c3)OCO4)oc2c1
inactive: MDA-MB-435 > 100 µM | SF-268 20.7 µM | OVCAR-3 > 100 µM | EKVX 41.7 µM | NCI/ADR-RES 46.9 µM | SF-539 18.1 µM | SN12C 59.7 µM | OVCAR-4 > 100 µM | CCRF-CEM > 100 µM | SK-OV-3 22.8 µM | SNB-19 22 µM | CAKI-1 21 µM | SK-MEL-5 47.3 µM | A549 > 100 µM | COLO 205 > 100 µM | T47D 23.1 µM | UACC-62 26 µM | UACC-257 > 100 µM
> 100 µM: HCT-15
